Laboratory results: ChEMBL document CHEMBL5390237, “Discovery of Selective Histone Deacetylase 1 and 2 Inhibitors: Screening of a Focused Library Constructed by Click Chemistry, Kinetic Binding Analysis, and Biological Evaluation” (J Med Chem, 2023)
Active and inactive are the calls of the source. The calls are words filed in the database; no cut-off is given here.

Assays:
[1] = target: Histone deacetylase 5 (Homo sapiens) (UniProt Q9UQL6); experiment: Inhibition of recombinant human HDAC5 using fluorogenic substrate preincubated for 3 hrs followed by substrate addition and measured after 30 mins by fluorescence analysis; conditions: time 3.5 hrs
Histone deacetylase 5 (Homo sapiens), sequence (Q9UQL6 whole entry): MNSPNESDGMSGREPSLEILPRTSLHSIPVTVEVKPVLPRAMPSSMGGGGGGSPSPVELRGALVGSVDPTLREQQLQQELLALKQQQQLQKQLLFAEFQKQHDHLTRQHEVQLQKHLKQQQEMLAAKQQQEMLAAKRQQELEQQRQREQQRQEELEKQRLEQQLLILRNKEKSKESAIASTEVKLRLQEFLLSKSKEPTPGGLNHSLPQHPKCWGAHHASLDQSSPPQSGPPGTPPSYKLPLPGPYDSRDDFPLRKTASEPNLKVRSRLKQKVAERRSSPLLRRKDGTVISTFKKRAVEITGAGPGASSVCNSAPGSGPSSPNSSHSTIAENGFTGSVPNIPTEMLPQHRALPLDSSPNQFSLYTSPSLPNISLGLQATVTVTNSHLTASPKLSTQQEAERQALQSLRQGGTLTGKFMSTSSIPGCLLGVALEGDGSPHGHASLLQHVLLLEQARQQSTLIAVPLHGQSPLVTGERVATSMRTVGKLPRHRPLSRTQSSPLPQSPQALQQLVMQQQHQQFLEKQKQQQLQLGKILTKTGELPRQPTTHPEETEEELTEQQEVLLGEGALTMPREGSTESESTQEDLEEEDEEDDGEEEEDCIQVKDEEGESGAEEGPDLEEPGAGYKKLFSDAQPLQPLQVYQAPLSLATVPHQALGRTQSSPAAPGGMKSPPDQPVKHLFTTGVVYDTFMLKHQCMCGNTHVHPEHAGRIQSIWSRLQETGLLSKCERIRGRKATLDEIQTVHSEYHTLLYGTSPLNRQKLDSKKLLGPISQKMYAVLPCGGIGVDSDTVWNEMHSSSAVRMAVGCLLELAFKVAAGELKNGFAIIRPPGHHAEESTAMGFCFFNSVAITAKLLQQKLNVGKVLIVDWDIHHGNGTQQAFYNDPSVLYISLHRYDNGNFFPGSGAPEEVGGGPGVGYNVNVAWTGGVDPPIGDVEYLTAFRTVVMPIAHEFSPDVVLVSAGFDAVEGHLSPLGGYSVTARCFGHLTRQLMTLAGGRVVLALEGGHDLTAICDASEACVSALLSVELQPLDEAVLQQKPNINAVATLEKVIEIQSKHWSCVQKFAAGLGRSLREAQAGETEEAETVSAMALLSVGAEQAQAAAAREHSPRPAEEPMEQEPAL

[2] = target: T1, Histone deacetylase 2 (Homo sapiens, UniProt Q92769); experiment: biochemical; assay type: cell-based, Sf9
T1 sequence (Q92769 whole entry): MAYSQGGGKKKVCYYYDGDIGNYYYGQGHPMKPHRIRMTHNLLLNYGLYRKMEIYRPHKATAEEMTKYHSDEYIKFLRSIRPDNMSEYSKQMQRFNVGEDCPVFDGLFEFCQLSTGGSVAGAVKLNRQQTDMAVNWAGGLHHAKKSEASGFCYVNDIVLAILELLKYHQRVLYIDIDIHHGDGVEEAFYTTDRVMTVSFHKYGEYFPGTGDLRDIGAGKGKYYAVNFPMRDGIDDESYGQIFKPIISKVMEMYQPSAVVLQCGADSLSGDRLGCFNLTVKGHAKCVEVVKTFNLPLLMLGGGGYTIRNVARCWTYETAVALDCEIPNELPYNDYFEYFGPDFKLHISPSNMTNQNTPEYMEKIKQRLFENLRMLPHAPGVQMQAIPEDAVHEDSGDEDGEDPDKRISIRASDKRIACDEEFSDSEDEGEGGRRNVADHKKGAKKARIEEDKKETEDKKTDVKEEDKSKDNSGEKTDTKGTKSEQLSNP

[3] = target: Histone deacetylase 4 (Homo sapiens) (UniProt P56524); experiment: Inhibition of recombinant human HDAC4 using fluorogenic substrate preincubated for 3 hrs followed by substrate addition and measured after 30 mins by fluorescence analysis; conditions: time 3.5 hrs
[4] = system: MCF7; experiment: Downregulation of E2F8 gene expression in human MCF7 cells at 2 uM incubated for 24 hrs by microarray analysis; assay type: functional, cell-based
[5] = target: T2, Histone deacetylase 7 (Homo sapiens) (UniProt Q8WUI4); experiment: Inhibition of recombinant human HDAC7 using fluorogenic substrate preincubated for 3 hrs followed by substrate addition and measured after 30 mins by fluorescence analysis; conditions: time 3.5 hrs
T2 sequence (whole entry): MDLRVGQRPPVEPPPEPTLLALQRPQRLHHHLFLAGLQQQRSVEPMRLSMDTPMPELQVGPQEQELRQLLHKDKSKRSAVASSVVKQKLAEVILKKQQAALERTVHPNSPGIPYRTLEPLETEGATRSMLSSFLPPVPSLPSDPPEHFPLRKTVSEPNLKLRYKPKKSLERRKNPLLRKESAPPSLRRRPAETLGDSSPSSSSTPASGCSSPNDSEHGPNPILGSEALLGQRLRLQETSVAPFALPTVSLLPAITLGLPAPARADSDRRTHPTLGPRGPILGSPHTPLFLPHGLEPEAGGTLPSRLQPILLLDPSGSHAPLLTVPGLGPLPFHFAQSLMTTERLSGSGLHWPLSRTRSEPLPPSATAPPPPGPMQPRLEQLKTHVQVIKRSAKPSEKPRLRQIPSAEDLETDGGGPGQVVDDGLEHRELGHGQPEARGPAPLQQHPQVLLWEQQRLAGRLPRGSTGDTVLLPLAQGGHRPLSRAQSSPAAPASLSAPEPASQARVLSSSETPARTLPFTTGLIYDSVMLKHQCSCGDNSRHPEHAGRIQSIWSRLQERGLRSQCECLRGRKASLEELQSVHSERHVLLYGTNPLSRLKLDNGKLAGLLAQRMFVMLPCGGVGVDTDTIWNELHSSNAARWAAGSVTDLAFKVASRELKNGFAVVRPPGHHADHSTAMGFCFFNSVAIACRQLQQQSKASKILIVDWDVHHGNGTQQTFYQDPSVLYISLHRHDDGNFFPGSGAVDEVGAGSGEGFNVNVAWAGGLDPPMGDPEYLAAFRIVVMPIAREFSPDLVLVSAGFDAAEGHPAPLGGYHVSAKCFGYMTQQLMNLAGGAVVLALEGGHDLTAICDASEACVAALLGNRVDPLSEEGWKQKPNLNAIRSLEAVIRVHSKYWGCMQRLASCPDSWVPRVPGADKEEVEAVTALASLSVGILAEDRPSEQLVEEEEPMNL

[6] = target: T1, Histone deacetylase 2; conditions: Sf9, time 60.0 min
[7] = target: Histone deacetylase 1 (Homo sapiens, UniProt Q13547); experiment: Inhibition of full-length recombinant human C-terminal GST tagged HDAC1 expressed in Sf9 insect cells using aminoluciferin peptide substrate preincubated for 3 hrs followed by substrate addition and measured after 30 mins by HDAC-Glo I/II chemiluminescence assay
Histone deacetylase 1, sequence (Q13547 whole entry): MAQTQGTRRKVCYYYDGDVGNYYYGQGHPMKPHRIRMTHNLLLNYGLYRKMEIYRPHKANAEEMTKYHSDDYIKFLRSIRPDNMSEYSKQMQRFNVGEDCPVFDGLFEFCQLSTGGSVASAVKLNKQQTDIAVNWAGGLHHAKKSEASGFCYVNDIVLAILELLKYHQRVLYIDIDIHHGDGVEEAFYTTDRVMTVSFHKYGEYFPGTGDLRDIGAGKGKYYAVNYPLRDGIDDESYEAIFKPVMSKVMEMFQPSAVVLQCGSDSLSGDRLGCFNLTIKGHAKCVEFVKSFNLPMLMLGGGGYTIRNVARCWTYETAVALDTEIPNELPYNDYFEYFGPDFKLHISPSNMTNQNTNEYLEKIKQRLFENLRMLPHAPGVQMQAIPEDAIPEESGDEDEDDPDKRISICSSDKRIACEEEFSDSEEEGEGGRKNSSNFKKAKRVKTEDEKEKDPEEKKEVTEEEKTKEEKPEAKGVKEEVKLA

[8] = target: T1, Histone deacetylase 2; conditions: Sf9, time 60.0 min; remark: listed apart in the source
[9] = target: Histone deacetylase 3/NCoR1 (Homo sapiens, UniProt O15379); experiment: Inhibition of recombinant human HDAC3/human GST-tagged NCOR1 (397 to 503 residues) using K(Ac)382 peptide substrate preincubated for 3 hrs followed by substrate addition and measured after 30 mins by HDAC-Glo I/II chemiluminescence assay; assay type: protein-complex assay
Histone deacetylase 3/NCoR1, sequence (O15379 whole entry, the tested form may be a part): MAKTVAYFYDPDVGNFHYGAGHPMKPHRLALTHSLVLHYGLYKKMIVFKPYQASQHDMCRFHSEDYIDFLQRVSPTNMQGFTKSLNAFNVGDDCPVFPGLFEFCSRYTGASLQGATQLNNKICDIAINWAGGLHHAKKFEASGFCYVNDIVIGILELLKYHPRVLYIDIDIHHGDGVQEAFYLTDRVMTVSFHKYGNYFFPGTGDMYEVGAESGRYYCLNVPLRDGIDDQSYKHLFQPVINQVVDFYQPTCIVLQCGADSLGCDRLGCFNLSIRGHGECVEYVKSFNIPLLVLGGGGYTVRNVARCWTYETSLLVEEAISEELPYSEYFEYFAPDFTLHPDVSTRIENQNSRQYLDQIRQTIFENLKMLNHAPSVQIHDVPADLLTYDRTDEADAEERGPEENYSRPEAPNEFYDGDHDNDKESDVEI
Histone deacetylase 3/NCoR1, sequence (O75376 whole entry, further chain, the tested form may be a part): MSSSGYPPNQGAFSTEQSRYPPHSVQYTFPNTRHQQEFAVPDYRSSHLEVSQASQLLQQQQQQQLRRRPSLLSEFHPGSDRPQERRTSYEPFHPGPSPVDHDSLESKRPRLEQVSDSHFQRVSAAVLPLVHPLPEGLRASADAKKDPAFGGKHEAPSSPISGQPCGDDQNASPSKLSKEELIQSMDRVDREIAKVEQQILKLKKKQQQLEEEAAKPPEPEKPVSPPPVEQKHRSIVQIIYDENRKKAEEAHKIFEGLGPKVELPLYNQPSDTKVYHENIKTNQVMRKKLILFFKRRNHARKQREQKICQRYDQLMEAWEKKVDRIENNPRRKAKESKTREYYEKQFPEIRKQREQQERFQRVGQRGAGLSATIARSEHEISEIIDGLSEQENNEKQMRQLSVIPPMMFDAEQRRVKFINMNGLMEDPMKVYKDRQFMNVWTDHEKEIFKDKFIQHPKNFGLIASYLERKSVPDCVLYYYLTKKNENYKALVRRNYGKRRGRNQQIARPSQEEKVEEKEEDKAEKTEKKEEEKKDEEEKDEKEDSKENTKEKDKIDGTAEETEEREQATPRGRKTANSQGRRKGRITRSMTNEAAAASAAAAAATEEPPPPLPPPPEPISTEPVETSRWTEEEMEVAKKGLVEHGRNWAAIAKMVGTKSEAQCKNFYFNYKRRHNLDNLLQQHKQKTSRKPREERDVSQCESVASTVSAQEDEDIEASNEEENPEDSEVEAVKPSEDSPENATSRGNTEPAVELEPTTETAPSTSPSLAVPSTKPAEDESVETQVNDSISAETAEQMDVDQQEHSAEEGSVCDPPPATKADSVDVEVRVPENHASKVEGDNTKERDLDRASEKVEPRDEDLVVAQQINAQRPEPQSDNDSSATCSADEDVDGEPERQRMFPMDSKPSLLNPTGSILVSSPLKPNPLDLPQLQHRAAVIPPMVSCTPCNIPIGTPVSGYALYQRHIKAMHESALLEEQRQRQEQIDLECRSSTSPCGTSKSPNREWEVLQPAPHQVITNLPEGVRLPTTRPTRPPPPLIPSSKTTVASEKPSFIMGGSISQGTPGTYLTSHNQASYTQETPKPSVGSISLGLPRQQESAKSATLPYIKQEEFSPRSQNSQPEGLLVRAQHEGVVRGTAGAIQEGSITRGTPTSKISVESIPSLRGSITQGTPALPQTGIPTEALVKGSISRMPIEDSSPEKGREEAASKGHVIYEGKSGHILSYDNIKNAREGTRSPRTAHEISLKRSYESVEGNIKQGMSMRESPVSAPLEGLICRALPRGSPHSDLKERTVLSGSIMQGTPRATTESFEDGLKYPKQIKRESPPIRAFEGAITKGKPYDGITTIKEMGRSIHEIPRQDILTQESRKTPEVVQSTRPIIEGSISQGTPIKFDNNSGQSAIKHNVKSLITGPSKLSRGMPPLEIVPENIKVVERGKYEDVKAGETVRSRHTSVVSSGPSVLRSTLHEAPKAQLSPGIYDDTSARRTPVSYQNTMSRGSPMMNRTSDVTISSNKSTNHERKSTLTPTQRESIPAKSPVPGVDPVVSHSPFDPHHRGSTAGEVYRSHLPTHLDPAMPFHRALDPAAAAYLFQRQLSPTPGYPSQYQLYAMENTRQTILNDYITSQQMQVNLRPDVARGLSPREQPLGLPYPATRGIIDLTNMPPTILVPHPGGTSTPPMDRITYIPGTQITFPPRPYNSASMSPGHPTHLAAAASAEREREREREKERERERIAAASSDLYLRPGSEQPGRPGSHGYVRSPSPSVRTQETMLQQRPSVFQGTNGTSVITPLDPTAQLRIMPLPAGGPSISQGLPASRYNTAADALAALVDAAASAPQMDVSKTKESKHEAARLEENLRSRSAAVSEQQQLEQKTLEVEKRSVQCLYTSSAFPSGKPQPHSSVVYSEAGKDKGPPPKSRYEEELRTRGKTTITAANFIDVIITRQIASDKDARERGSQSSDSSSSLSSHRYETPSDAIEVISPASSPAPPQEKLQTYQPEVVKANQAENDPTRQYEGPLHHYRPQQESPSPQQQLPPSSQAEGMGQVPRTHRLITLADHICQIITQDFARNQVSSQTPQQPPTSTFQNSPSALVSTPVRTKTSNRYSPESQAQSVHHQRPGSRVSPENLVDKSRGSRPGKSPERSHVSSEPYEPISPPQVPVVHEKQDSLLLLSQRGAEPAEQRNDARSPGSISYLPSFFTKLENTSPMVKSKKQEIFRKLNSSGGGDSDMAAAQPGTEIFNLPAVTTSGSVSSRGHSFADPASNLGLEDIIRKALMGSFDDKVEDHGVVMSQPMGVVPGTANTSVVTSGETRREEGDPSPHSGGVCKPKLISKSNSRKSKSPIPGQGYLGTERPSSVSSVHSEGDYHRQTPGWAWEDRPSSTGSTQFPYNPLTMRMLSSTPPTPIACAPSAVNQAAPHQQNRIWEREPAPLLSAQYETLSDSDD

[10] = target: T1, Histone deacetylase 2; experiment: Inhibition of full-length recombinant human C-terminal GST tagged HDAC2 expressed in Sf9 insect cells using aminoluciferin peptide substrate at 100 nM preincubated for 3 hrs followed by substrate addition and measured after 30 mins by HDAC-Glo I/II chemiluminescence assay; conditions: time 3.5 hrs
[11] = system: MCF7; experiment: Downregulation of CCNE2 gene expression in human MCF7 cells at 2 uM incubated for 24 hrs by microarray analysis; assay type: functional, cell-based
[12] = system: Mus musculus; experiment: Neuroprotective activity in BALB/c mouse assessed as increase in spine density in granule neuron dendrites at 1 uM,SCi administered through osmotic minipumps incubated for 48 hrs by bright-field microscopy; assay type: functional, organism-based
[13] = target: T1, Histone deacetylase 2; experiment: Inhibition of full-length recombinant human C-terminal GST tagged HDAC2 expressed in Sf9 insect cells assessed as second order dissociation rate constant (k-2) using Ac-LGK(Ac)-AMC substrate and measured for 60 mins at 2 mins interval by fluorescence analysis
[14] = system: N2a; experiment: Induction of neurite outgrowth in mouse Neuro2a cells assessed as percentage of neurite-bearing cells at 20 to 2000 nM incubated for 48 hrs by microscopy; assay type: functional, cell-based; conditions: dose 20-2000 nM
[15] = target: T1, Histone deacetylase 2; experiment: Inhibition of full-length recombinant human C-terminal GST tagged HDAC2 expressed in Sf9 insect cells assessed as second order […] rate constant (k2) using Ac-LGK(Ac)-AMC substrate and measured for 60 mins at 2 mins interval by fluorescence analysis

inhibition [1]	Ki [2]	inhibition [3]	inhibition [5]	Kdiss [6]	IC50 [7]	ka [8]	IC50 [9]	inhibition [10]	Kdiss [13]	ka [15]	SMILES	Activity [4]	Activity [11]	Activity [12]	Activity [14]
inactive	9.8 nM	inactive	inactive	8.33e-05 s⁻¹	6.5 nM	8830 M⁻¹ s⁻¹	> 10000 nM	81%	–	–	Nc1ccc(-c2cccs2)cc1NC(=O)c1ccc(-c2cn(CCc3ccccn3)nn2)cc1	Active	Active	–	–
inactive	6.2 nM	inactive	inactive	–	12 nM	–	> 10000 nM	77%	3.33e-05 s⁻¹	683 M⁻¹ s⁻¹	Nc1ccc(-c2cccs2)cc1NC(=O)c1ccc(-c2cn(CS(=O)(=O)c3ccccc3)nn2)cc1	Active	Active	Active	Active
inactive	22 nM	inactive	inactive	0.000117 s⁻¹	8.2 nM	5330 M⁻¹ s⁻¹	> 10000 nM	87%	–	–	Nc1ccc(-c2cccs2)cc1NC(=O)c1ccc(-c2cn(C[S+]([O-])c3ccccc3)nn2)cc1 (stereo not given)	Active	Active	–	–
